This is an account of results in ChEMBL document CHEMBL1135647, “New pyridobenzodiazepine derivatives: modifications of the basic side chain differentially modulate binding to dopamine (D(4.2), D(2L)) and serotonin (5-HT(2A)) receptors” (J Med Chem, 2002).

The test system of assay [1] is Rattus norvegicus. Nature of the assay: Compound was evaluated in paw test for the forelimb retraction at effective dose of 20 (mg/kg). The format is functional.
In assay [2] the test system is Rattus norvegicus. Description: Compound was evaluated in paw test for the hindlimb retraction at effective dose of 5 (mg/kg). The assay is classed as functional.
Assay [3] deals with Mus musculus. Nature of the assay: Percentage of total immobility time after an intraperitoneal dose of 30 (mg/kg) in porsolt's test. The assay is classed as functional.
In assay [4] the test system is Mus musculus. Nature of the assay: Percentage of total immobility time after an intraperitoneal dose of 7.5 (mg/kg) in porsolt's test. The assay is classed as functional.
Assay [5] deals with Mus musculus. Description: Percentage of total immobility time after an intraperitoneal dose of 15 (mg/kg) in porsolt's test.

Consider `O=C(CCCN1CCC(O)(c2ccc(Cl)cc2)CC1)c1ccc(F)cc1` [HALOPERIDOL], for which the Retraction time was 22.5 s with Rattus norvegicus [1] and 30 s in the assay on Rattus norvegicus [2].

For `CN(C)CCCN1c2ccccc2CCc2ccccc21` [IMIPRAMINE], the Immobility is on record as 70% in the assay on Mus musculus [3], 98% in the assay on Mus musculus [4] and 45% in the assay on Mus musculus [5].
